# Test results: article PMC4138103 (PLoS ONE, 2014)
# Where two headings read alike, the source gives them in different places.
# Experiments:
# [1] = tested on: Sprague-Dawley rats; assay: Liver p53 and DNA damage markers, Western blotting; type: in vivo, Rattus norvegicus; settings: for Emax: Rattus norvegicus
# Experimental: Liver p53, Mdm2 and DNA damage related markers were assessed by Western blotting analysis. Proteins of the liver homogenates were quantified using Coomassie Plus Protein Assay Reagent (Pierce, Täby, Sweden). The samples were subjected to SDS-PAGE, the separated proteins were transferred to a polyvinylidene difluoride membrane (Bio-Rad, Hercules, CA, USA) and blocked in 10% non-fatty milk for 1 h. The protein bands were subsequently probed with antibodies overnight at 4°C.
# The primary antibody for total p53 DO-1 was purchased from Novocastra (Newcastle, UK). Primary antibodies for DNA-damage marker were phospho-p53 (Ser-15), phospho-Chk2 (Thr-68), phospho-Mdm2 (Ser-166), phospho-Akt (Ser-473) (Cell Signaling Technology, Stockholm, Sweden) phospho-Erk (Tyr-204) (E-4) and the loading control Cdk2 (M2) (sc-7383 resp. sc-163, Santa Cruz Biotechnology, Santa Cruz, CA, USA). Secondary antibodies used were goat anti-rabbit IgG, goat anti-mouse IgG (sc-2004 resp. sc-2005, Santa Cruz Biotechnology). No signals were obtained when primary antibodies were omitted. […]. The results were visualized by the ECL or ECL plus detection kits (Amersham GE Healthcare Bio-sciences AB, Uppsala, Sweden). Cdk2 was used as a loading control.
# Data were also analyzed using the BMD method, which is based on dose-response modeling of the full data set using a nested family of exponential and Hill models. The analyses were done on data of males and females combined, using sex as a covariate. […] In that case, different Critical Effect Doses (CEDs) and CEDs at the lowest bound of the confidence interval (CED-L) were generated for each sex. If no difference between sexes is detected, a CED and CED-Ls for the combined data is generated. However, this was also done if the curve fits are close, and separate analyses for males and females were then performed manually. […]
# [2] = tested on: Sprague-Dawley rats; assay: In-life observations, 28-day repeated dose oral toxicity study; type: in vivo, Rattus norvegicus
# Excerpt: The experimental protocol followed the OECD 407 Guideline on Repeated dose 28-day oral toxicity study in rodents, which was enhanced for detection of endocrine, neurotoxicity, retinoid, bone and DNA damage endpoints. In order to improve the assessment of dose-response relationships the number of rats per gender per dose group was reduced to 5 and the amount of dose groups was increased to 8. To rapidly achieve the kinetic steady state, the total dose was divided into 6 daily loading doses and 3 weekly maintenance doses, which were calculated according to the formula [21]. [drawing 1] where [drawing 2] = loading dose
# Loading doses were administered on days 0–5 and maintenance doses on days 10, 17 and 24 of the study. Selection of the highest dose was based on a pilot study.
# Food and water consumption per cage was recorded once weekly. For determination of the stage of the estrous cycle vaginal smears were collected from female rats daily starting from day 23 of the study. This was done to ensure that the females were at the diestrous stage during necropsy.
# [3] = F, CES 5%, model E4, adipose tissue concentration based
# [4] = F, CES 5%, model E5, adipose tissue concentration based
# [5] = F, CES 100%, model E4, adipose tissue concentration based
# [6] = F, CES 100%, model E5, adipose tissue concentration based
# [7] = females, CES 5%, total dose based
# [8] = females, CES 100%, adipose tissue concentration based
# [9] = females, CES 100%, total dose based
# [10] = females, adipose tissue concentration based
smiles,measurement,setting,value
"Clc1cc(Cl)c(-c2cc(Cl)c(Cl)c(Cl)c2Cl)cc1Cl [PCB 180, 2,2′,3′,4,4′,5,5′-heptachlorobiphenyl]","CED, Liver p53",[1]; [3],65.2 µg/g lipid
same,"CED-L, Liver p53",[1]; [3],30.0 µg/g lipid
same,"CED, Liver p53 Ser15",[1]; [4],361 µg/g lipid
same,"CED, Liver pChk2 Thr68",[1]; [4],337 µg/g lipid
same,"CED-L, Liver p53 Ser15",[1]; [4],124 µg/g lipid
same,"CED-L, Liver pChk2 Thr68",[1]; [4],98.2 µg/g lipid
same,"CED, Liver p53",[1]; [5],2240 µg/g lipid
same,"CED-L, Liver p53",[1]; [5],1053 µg/g lipid
same,"CED, Liver p53 Ser15",[1]; [6],438 µg/g lipid
same,"CED, Liver pChk2 Thr68",[1]; [6],382 µg/g lipid
same,"CED-L, Liver p53 Ser15",[1]; [6],411 µg/g lipid
same,"CED-L, Liver pChk2 Thr68",[1]; [6],165 µg/g lipid
same,Emax,"[1]; F, model E4, controls vs high dose according to the fitted model, read-out: Maximum response, Liver p53",141%
same,Emax,"[1]; females, controls vs high dose, fitted model, read-out: Liver p53, Maximum response",142%
same,Emax,"[1]; females, controls vs high dose, fitted model, read-out: Liver p53 Ser15, Maximum response",181%
same,Emax,"[1]; females, controls vs high dose, fitted model, read-out: Liver pChk2 Thr68, Maximum response",185%
same,Emax,"[1]; F, model E5, controls vs high dose according to the fitted model, read-out: Maximum response, Liver p53 Ser15",181%
same,Emax,"[1]; F, model E5, controls vs high dose according to the fitted model, read-out: Maximum response, Liver pChk2 Thr68",185%
same,"Liver p53, CED",[1]; [7],14.1 mg/kg bw
same,"Liver p53, CED-L",[1]; [7],5.89 mg/kg bw
same,"Liver p53 Ser15, CED",[1]; [7],79.2 mg/kg bw
same,"Liver p53 Ser15, CED-L",[1]; [7],19.5 mg/kg bw
same,"Liver pChk2 Thr68, CED",[1]; [7],72.9 mg/kg bw
same,"Liver pChk2 Thr68, CED-L",[1]; [7],31.5 mg/kg bw
same,"Liver p53 Ser15, CED (100%)",[1]; [8],438 µg/g lipid
same,"Liver pChk2 Thr68, CED (100%)",[1]; [8],382 µg/g lipid
same,"Liver p53, CED",[1]; [9],472 mg/kg bw
same,"Liver p53, CED-L",[1]; [9],210 mg/kg bw
same,"Liver p53 Ser15, CED",[1]; [9],101 mg/kg bw
same,"Liver p53 Ser15, CED-L",[1]; [9],93.0 mg/kg bw
same,"Liver pChk2 Thr68, CED",[1]; [9],81.1 mg/kg bw
same,"Liver pChk2 Thr68, CED-L",[1]; [9],41.8 mg/kg bw
same,"Liver p53, CED",[1]; [10],2240 µg/g lipid
same,"Liver p53, CED-L",[1]; [10],30000 ng/g lipid
same,Body weight development,"[2]; 1700 mg/kg bw, both genders, during loading dosing, recovered completely by end of study",retarded
same,"Feed consumption, maximal temporary reduction","[2]; females, three highest doses, during loading dosing",about 20%
same,"Feed consumption, maximal temporary reduction","[2]; males, two highest doses, during loading dosing",about 25%
same,Water consumption,"[2]; rat, in vivo",unaffected
same,Mortality,"[2]; total doses 3-1700 mg/kg bw, both genders",no mortality
